{
  "source": "patent US20100173015A1",
  "about": "“COMPOSITIONS AND METHODS FOR THE ABSORPTION, CHELATION, AND ELIMINATION OF TRACE ELEMENTS” (priority 2009, published 2010)",
  "origin": "cited, not measured here",
  "key": {"[1]": {"tested_on": "human lung embryonic fibroblasts (TIG-1)", "conditions": "TIG-1 cells"}, "[2]": {"tested_on": "umbilical vein endothelial (HUVE) cells"}, "NQO1": {"tested_on": "NQO1", "conditions": "microarray, in the presence of taxifolin"}, "GSTM1": {"tested_on": "GSTM1", "conditions": "microarray, in the presence of taxifolin"}, "CYP2E1": {"tested_on": "CYP2E1", "conditions": "microarray, in the presence of taxifolin"}},
  "data": [
    {"compound": "O=C1c2c(O)cc(O)cc2O[C@H](c2ccc(O)c(O)c2)[C@H]1O", "note": "[Dihydroquercetin]", "values": [
      {"measurement": "50% lethal concentration", "setting": "[1]", "value": "> 300", "unit": "µmol"},
      {"measurement": "50% lethal concentration", "setting": "[2]", "value": "> 200", "unit": "µmol"},
      {"measurement": "expression of phase II detoxification enzyme NQO1", "setting": "NQO1", "value": "upregulated"},
      {"measurement": "expression of phase II detoxification enzyme GSTM1", "setting": "GSTM1", "value": "upregulated"},
      {"measurement": "expression of phase I detoxification enzyme CYP2E1", "setting": "CYP2E1", "value": "down regulated"}
    ]}
  ]
}
